Results published in patent US4063015A, “Garamine and derivatives thereof” (Schering Corporation, priority 1975, dated 1977).
Values after ≈ are worked out from the molar mass of the structure shown. Read-outs that look alike come from different tables or passages of the source.

Assays:
Trichomonas Vaginalis = test: In vitro Activity Against Trichomonas Vaginalis, Table II; format: cell-based; details: for IC99: read-out: Minimal 99% suppression level; for MBC: read-out: Minimal Cidal Level
Text: (§1) In general, the novel pseudotrisaccharides of this invention (I) can be used to treat diverse types of susceptible microbial, viral, helmintic and protozoal infestations. These anthelmintic, antiprotozoal, antimicrobial and antiviral activities can readily be determined by standard in vivo and in vitro tests well known to the microbiologist and virologist. Of the compounds of this invention it can generally be stated that those 6'--NH2 or 6'--NHR4 compounds having a 2'--OH group are preferred for their activity against bacteria, trichomonas, amoeba, and helminths; those 2'--HN2 or 2'--NHR4 compounds having a 6'--OH group are preferred for their activity against bacteria, trichomona, amoeba, and helminths; those 2'--NH2 or 2'--NHR4 compounds having a 6'--NH2 or a 6'--NHR4 group are preferred for their antibacterial activity while those 2'--OH or 6'--OH compounds are preferred for their antitrichomonal activity.
(§2) Typical activity is illustrated by the following tables showing antibacterial and antiprotozoal activities.
In vitro Activity Against Trichomonas Vaginalis
STS - Simplified Tripticase Serum Medium, Baltimore Biological
Laboratories, Baltimore, Maryland.

Staphylococcus aureus = test: Minimal Inhibitory Concentration (MIC), Table I; format: cell-based
Text: as §1, §2
(§3) Minimal Inhibitory Concentration (MIC) (mcg/ml)

[1] = system: Klebsiella pneumoniae (N,M resistant); test: Minimal Inhibitory Concentration (MIC), Table I; format: cell-based
Text: as §1, §2, §3

Bacillus subtilis = test: Minimal Inhibitory Concentration (MIC), Table I; format: cell-based
Text: as §1, §2, §3

Serratia marcessans = test: Minimal Inhibitory Concentration (MIC), Table I; format: cell-based
Text: as §1, §2, §3

[2] = system: Escherichia coli (T resistant); test: Minimal Inhibitory Concentration (MIC), Table I; format: cell-based; details: tobramycin resistant
Text: as §1, §2, §3

[3] = system: Klebsiella pneumoniae (G-resistant); test: Minimal Inhibitory Concentration (MIC), Table I; format: cell-based; details: garamycin resistant
Text: as §1, §2, §3

Providence = test: Minimal Inhibitory Concentration (MIC), Table I; format: cell-based
Text: as §1, §2, §3

Streptococcus pyogenes C = test: Minimal Inhibitory Concentration (MIC), Table I; format: cell-based
Text: as §1, §2, §3

Proteus mirabilis = test: Minimal Inhibitory Concentration (MIC), Table I; format: cell-based
Text: as §1, §2, §3

[4] = system: Escherichia coli (G resistant); test: Minimal Inhibitory Concentration (MIC), Table I; format: cell-based; details: garamycin resistant
Text: as §1, §2, §3

Escherichia coli = test: Minimal Inhibitory Concentration (MIC), Table I; format: cell-based
Text: as §1, §2, §3

[5] = system: Escherichia coli (N,K resistant); test: Minimal Inhibitory Concentration (MIC), Table I; format: cell-based; details: neomycin, kanamycin resistant
Text: as §1, §2, §3

[6] = system: Pseudomonas aeruginosa (G resistant); test: Minimal Inhibitory Concentration (MIC), Table I; format: cell-based; details: garamycin resistant
Text: as §1, §2, §3

Salmonella typhimurium = test: Minimal Inhibitory Concentration (MIC), Table I; format: cell-based; details: Salmonella enterica
Text: as §1, §2, §3

Pseudomonas aeruginosa = test: Minimal Inhibitory Concentration (MIC), Table I; format: cell-based
Text: as §1, §2, §3

pKa of garamine = format: physicochemical
Description: i. 1,3,3'-Tri-N-carbobenzoxygaramine (2.02 g.) was dissolved in methanol (100 ml.), and 10% palladium on carbon (1.0 g.) was added. The mixture was hydrogenated at 25° at 50 lbs/sq. in. for 16 hours, and the catalyst was filtered off, and washed with methanol. The filtrate was evaporated, and chromatographed on silica gel using the lower phase of a chloroform-methanol-concentrated ammonium hydroxide (2:1:1) system as the eluent. The fractions containing the garamine were concentrated in vacuo to small volume, and were then passed through Amberlite IR45 resin. The eluate was concentrated to small volume in vacuo, and the resulting solution was lyophilized to give garamine (750 mg.) (84%) as a colorless amorphous solid, m.p. 89°-99°, (Found: C, 48.31; H, 8.54; N, 12.87. C13 H27 N3 O6 requires: C, 48.60; H, 8.41; N, 13.08%), m/e 322 (M^+ +1), [α]D^26 + 135.4° (H2 O), pKa 8.5, .nu. max (nujol) 3300, 1060 cm.^-1, δ (D 2 O) 1.19 (3H, s, 4'--CH3), 2.51 (3H, s, 3'--NCH3), 2.57 (1H, d, J2',3' =10.5 Hz, H3'), 3.30 )1H, d, J5'a,5'e =12.5 Hz, H5'a), 3.79 (1H, dd, J2',3' =10.5 Hz, J1',2' =4 Hz, H2'), 4.03 (1H, d, J5'a,5'e =12.5 Hz, H5'e), 5.06 ppm. (1H, d, J1',2' =4 Hz, H1').

SMILES	MIC (Staphylococcus aureus) [µg/mL]	MIC [1] [µg/mL]	MIC (Bacillus subtilis) [µg/mL]	MIC (Serratia marcessans) [µg/mL]	MIC [2] [µg/mL]	MIC [3] [µg/mL]	MIC (Providence) [µg/mL]	MIC (Streptococcus pyogenes C) [µg/mL]	MIC (Proteus mirabilis) [µg/mL]	MIC [4] [µg/mL]	MIC (Escherichia coli) [µg/mL]	MIC [5] [µg/mL]	MIC [6] [µg/mL]	MIC (Salmonella typhimurium) [µg/mL]	MIC (Pseudomonas aeruginosa) [µg/mL]	pKa (pKa of garamine)	IC99 (Trichomonas Vaginalis; 24 hr.) [µg/mL]	MBC (Trichomonas Vaginalis; 24 hr.) [µg/mL]	IC99 (Trichomonas Vaginalis; 48 hr.) [µg/mL]	MBC (Trichomonas Vaginalis; 48 hr.) [µg/mL]
CN[C@@H]1[C@@H](O)[C@@H](O[C@@H]2[C@@H](O)[C@H](O[C@H]3O[C@H](CO)[C@@H](O)[C@H](O)[C@H]3N)[C@@H](N)C[C@H]2N)OC[C@]1(C)O (stereo in doubt) [Gentamicin X2]	0.3 to 7.5 (≈ 0.622 to 15.5 µM)	> 25	0.08 (≈ 0.166 µM)	> 25	> 25	> 25	> 25	1 to 17.5 (≈ 2.07 to 36.3 µM)	3 (≈ 6.22 µM)	> 25	0.8 to 3 (≈ 1.66 to 6.22 µM)	> 25	> 25				10	10 (≈ 20.7 µM)	< 10	10 (≈ 20.7 µM)
CCN[C@H]1[C@@H](O[C@H]2[C@H](O)[C@@H](O[C@H]3OC[C@](C)(O)[C@H](NC)[C@H]3O)[C@H](N)C[C@@H]2N)O[C@H](CO)[C@@H](O)[C@@H]1O [2'-N-Ethylgentamicin X2]	3 to 7.5 (≈ 5.88 to 14.7 µM)	> 25	3 (≈ 5.88 µM)	> 25	> 25	> 25	> 25		> 25			> 25	> 25	3 (≈ 5.88 µM)			< 10	10 (≈ 19.6 µM)	< 2.5	2.5 (≈ 4.9 µM)
CCN[C@@H]1C[C@H](O)[C@@H](CO)O[C@@H]1O[C@H]1[C@H](O)[C@@H](O[C@H]2OC[C@](C)(O)[C@H](NC)[C@H]2O)[C@H](N)C[C@@H]1N [3'-Deoxy-2'-N-ethylgentamicin X2]		3 to 7.5 (≈ 6.07 to 15.2 µM)	> 25	3 (≈ 6.07 µM)	3 (≈ 6.07 µM)	> 25	> 25	> 25	> 25	> 25		17.5 (≈ 35.4 µM)	> 25				< 2.5	< 2.5	< 2.5	< 2.5
CN[C@@H]1[C@@H](O)[C@@H](O[C@@H]2[C@@H](O)[C@H](O)[C@@H](N)C[C@H]2N)OC[C@]1(C)O [Garamine, 0-3-deoxy-4-C-methyl-3-(methylamino)-β-L-arabinopyranosyl-(1→6)-2-deoxy-D-streptamine]																8.5				
CN[C@@H]1[C@@H](O)[C@@H](O[C@@H]2[C@@H](O)[C@H](O[C@H]3O[C@H](CN)[C@@H](O)[C@H](O)[C@H]3N)[C@@H](N)C[C@H]2N)OC[C@]1(C)O [JI-20A]	0.3 (≈ 0.623 µM)	> 25	< 0.05	> 25	> 25	> 25	> 25	17.5 (≈ 36.3 µM)	7.5 (≈ 15.6 µM)	> 25	0.3 (≈ 0.623 µM)		> 25	0.3 (≈ 0.623 µM)	7.5 to 17.5 (≈ 15.6 to 36.3 µM)					
CN[C@@H]1[C@@H](O)[C@@H](O[C@@H]2[C@@H](O)[C@H](O[C@H]3O[C@H](CO)[C@@H](O)[C@H](O)[C@H]3O)[C@@H](N)C[C@H]2N)OC[C@]1(C)O [O-α-D-Glucopyranosyl-(1→4)-garamine]																	10	25 (≈ 51.7 µM)	< 10	10 (≈ 20.7 µM)

Further lines, with some results ahead:

MIC (Staphylococcus aureus) [µg/mL]	MIC [1] [µg/mL]	MIC (Bacillus subtilis) [µg/mL]	MIC (Serratia marcessans) [µg/mL]	MIC [2] [µg/mL]	MIC [3] [µg/mL]	MIC (Providence) [µg/mL]	MIC (Streptococcus pyogenes C) [µg/mL]	MIC (Proteus mirabilis) [µg/mL]	MIC [4] [µg/mL]	MIC (Escherichia coli) [µg/mL]	MIC [5] [µg/mL]	MIC [6] [µg/mL]	MIC (Salmonella typhimurium) [µg/mL]	MIC (Pseudomonas aeruginosa) [µg/mL]	pKa (pKa of garamine)	SMILES	IC99 (Trichomonas Vaginalis; 24 hr.) [µg/mL]	MBC (Trichomonas Vaginalis; 24 hr.) [µg/mL]	IC99 (Trichomonas Vaginalis; 48 hr.) [µg/mL]	MBC (Trichomonas Vaginalis; 48 hr.) [µg/mL]
0.1 to 0.3 (≈ 0.208 to 0.624 µM)	0.3 to 0.75 (≈ 0.624 to 1.56 µM)	< 0.1	3 (≈ 6.24 µM)	> 25	> 25	3 (≈ 6.24 µM)	0.1 to 17.5 (≈ 0.208 to 36.4 µM)	0.75 to 3 (≈ 1.56 to 6.24 µM)		0.1 to 0.75 (≈ 0.208 to 1.56 µM)	0.75 to 17.5 (≈ 1.56 to 36.4 µM)			0.1 to 3 (≈ 0.208 to 6.24 µM)		CNC[C@H]1O[C@H](O[C@H]2[C@H](O)[C@@H](O[C@H]3OC[C@](C)(O)[C@H](NC)[C@H]3O)[C@H](N)C[C@@H]2N)[C@H](O)C[C@@H]1O [3'-Deoxy-6'-N-methylgentamicin B]				
0.5 to 7.5 (≈ 1.07 to 16.1 µM)	0.8 to 3 (≈ 1.71 to 6.43 µM)	0.03 (≈ 0.0643 µM)	0.8 (≈ 1.71 µM)	17.5 (≈ 37.5 µM)	> 25	> 25		7.5 (≈ 16.1 µM)	> 25	3 to 7.5 (≈ 6.43 to 16.1 µM)	3 to 7.5 (≈ 6.43 to 16.1 µM)	> 25	7.5 (≈ 16.1 µM)	3 to 7.5 (≈ 6.43 to 16.1 µM)		CN[C@@H]1[C@@H](O)[C@@H](O[C@@H]2[C@@H](O)[C@H](O[C@H]3O[C@H](CO)[C@@H](O)C[C@H]3N)[C@@H](N)C[C@H]2N)OC[C@]1(C)O [3'-Deoxygentamicin X2]	10	10 (≈ 21.4 µM)	< 10	10 (≈ 21.4 µM)
0.08 to 0.3 (≈ 0.172 to 0.644 µM)	0.08 (≈ 0.172 µM)	< 0.05	3 (≈ 6.44 µM)	17.5 (≈ 37.6 µM)		> 25	0.8 to 7.5 (≈ 1.72 to 16.1 µM)	0.3 (≈ 0.644 µM)	> 25	0.08 (≈ 0.172 µM)	0.08 to 0.8 (≈ 0.172 to 1.72 µM)	> 25	0.75 (≈ 1.61 µM)	0.08 to 0.8 (≈ 0.172 to 1.72 µM)		CN[C@@H]1[C@@H](O)[C@@H](O[C@@H]2[C@@H](O)[C@H](O[C@H]3O[C@H](CN)[C@@H](O)C[C@H]3N)[C@@H](N)C[C@H]2N)OC[C@]1(C)O [3'-deoxy-JI-20A, O-2,6-Diamino-2,3,6-trideoxy-α-D-glucopyranosyl-(1→4)-garamine]				
